Target: T1, CobNST (Rhodobacter capsulatus, UniProt D5AV09)
T1 construct: gene cobN; recombinant from E. coli BL21(DE3) pLysS; N-terminal 6xHis-tag and thrombin site on CobN (pET14b) and CobS (pET3a), CobT untagged, CobST copurified; 13 subunits; with Aerobic cobaltochelatase subunit CobS; Aerobic cobaltochelatase subunit CobT
T1 sequence (D5AV09 1-1085): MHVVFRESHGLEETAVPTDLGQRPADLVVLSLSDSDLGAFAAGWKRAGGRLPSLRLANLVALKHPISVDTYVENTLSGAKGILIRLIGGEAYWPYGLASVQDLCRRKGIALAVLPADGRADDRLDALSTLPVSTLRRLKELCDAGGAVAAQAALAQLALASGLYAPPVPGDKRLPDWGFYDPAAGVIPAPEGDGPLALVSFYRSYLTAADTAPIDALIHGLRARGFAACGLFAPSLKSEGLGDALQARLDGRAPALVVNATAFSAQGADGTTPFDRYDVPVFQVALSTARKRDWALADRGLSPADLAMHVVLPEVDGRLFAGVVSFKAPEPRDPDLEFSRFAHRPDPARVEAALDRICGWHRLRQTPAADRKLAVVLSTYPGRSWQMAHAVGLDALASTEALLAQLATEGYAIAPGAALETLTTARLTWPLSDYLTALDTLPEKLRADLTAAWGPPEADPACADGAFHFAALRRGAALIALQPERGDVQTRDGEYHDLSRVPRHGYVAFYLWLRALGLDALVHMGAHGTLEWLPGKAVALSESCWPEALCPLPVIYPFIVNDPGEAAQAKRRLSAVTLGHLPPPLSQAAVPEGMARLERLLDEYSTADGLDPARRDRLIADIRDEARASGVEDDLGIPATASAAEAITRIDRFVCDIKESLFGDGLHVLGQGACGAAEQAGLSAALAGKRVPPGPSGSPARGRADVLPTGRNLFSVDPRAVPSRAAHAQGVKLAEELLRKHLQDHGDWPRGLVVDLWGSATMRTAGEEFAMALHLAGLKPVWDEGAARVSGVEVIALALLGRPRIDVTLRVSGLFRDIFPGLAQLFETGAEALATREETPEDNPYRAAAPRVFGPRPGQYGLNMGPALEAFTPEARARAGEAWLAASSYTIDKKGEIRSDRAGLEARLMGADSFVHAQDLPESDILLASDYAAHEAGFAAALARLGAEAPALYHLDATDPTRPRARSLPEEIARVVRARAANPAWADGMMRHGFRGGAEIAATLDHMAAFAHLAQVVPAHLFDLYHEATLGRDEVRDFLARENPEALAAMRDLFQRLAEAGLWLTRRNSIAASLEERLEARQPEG
T1 sequence (D5AQ14 1-324 partner): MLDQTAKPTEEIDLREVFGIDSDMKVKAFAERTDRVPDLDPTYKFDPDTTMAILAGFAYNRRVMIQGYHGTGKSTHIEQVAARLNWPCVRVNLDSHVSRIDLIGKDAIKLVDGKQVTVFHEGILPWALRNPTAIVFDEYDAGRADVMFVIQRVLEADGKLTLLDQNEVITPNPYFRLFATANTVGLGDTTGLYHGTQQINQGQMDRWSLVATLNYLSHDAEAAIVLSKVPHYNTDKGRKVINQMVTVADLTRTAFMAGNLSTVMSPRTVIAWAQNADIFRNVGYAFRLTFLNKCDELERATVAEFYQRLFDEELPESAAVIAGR
T1 sequence (D5AQ13 1-624 partner): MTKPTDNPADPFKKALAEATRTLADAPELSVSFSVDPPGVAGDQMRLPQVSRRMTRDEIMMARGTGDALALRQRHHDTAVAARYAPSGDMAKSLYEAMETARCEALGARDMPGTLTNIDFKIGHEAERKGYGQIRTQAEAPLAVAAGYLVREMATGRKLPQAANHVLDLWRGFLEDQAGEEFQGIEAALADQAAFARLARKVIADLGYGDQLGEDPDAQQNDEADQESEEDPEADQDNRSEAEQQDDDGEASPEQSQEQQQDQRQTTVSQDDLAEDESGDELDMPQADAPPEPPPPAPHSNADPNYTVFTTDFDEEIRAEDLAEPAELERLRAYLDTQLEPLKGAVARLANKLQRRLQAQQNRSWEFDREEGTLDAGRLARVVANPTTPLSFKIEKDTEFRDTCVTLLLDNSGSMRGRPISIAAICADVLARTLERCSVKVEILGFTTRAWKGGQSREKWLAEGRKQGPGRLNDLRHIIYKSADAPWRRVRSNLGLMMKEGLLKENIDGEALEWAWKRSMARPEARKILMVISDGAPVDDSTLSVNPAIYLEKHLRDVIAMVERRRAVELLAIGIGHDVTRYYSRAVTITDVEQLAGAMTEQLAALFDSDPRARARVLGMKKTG
Assay: UV-visible absorbance at […] nm, Co(II) chelation
Assay type: biochemical
Conditions: 10 uM HBAD, 100 uM total Co(II), 10 mM MgCl2, 5 mM ATP, 50 mM Hepes pH 7.0, 100 mM NaCl, 20-25 C, anaerobic

Question: With `C/C1=C2N=C(/C=C3\N/C(=C(/C)C4=N[C@@](C)([C@@H]5N=C1[C@](C)(CCC(=O)O)[C@H]5CC(=O)O)[C@@](C)(CC(N)=O)[C@@H]4CCC(=O)O)[C@@](C)(CC(N)=O)[C@@H]3CCC(=O)O)C(C)(C)[C@@H]/2CCC(=O)O` [HBAD, hydrogenobyrinic acid a,c-diamide] as the compound, how does the “UV-visible absorbance at 330 nm, Co(II) chelation” value read?
Answer: Its value is “Metalation of HBAD to form cobyrinic acid a,c-diamide (CBAD) was followed by changes in the UV–visible absorbance”.

— PMC10206600, “Two Distinct Thermodynamic Gradients for Cellular Metalation of Vitamin B12” (JACS Au, 2023)
